According to PubChem BioAssay AID1259407 (Chemical Carcinogenesis Research Information System (CCRIS), 2018):
Calls of active or inactive are those of the source. How the calls were made is not given here.

Test system: CCRIS mutagenicity, Ames/micronucleus/aberration tests
Assay: CCRIS mutagenicity studies
[1] = Test System: AMES SALMONELLA TYPHIMURIUM, Strain/Indicator: TA98, Metabolic Activation: NONE, Method: PREINCUBATION

Compound: CC(=O)N(O)c1ccc2c(c1)Cc1ccccc1-2
- mutagenic call (Test System: AMES SALMONELLA TYPHIMURIUM, Strain/Indicator: TA98, Metabolic Activation: GUINEA PIG, LIVER, HEPATOCYTES): active; positive
- mutagenic call (Test System: AMES SALMONELLA TYPHIMURIUM, Strain/Indicator: TA98, Metabolic Activation: GUINEA PIG, LIVER, S-9, Method: STANDARD PLATE): active; positive
- mutagenic call (Test System: AMES SALMONELLA TYPHIMURIUM, Strain/Indicator: TA98, Metabolic Activation: HAMSTER, LIVER, HEPATOCYTES): active; positive
- mutagenic call (Test System: AMES SALMONELLA TYPHIMURIUM, Strain/Indicator: TA98, Metabolic Activation: HAMSTER, LIVER, S-9, Method: STANDARD PLATE): active; positive
- mutagenic call (Test System: AMES SALMONELLA TYPHIMURIUM, Strain/Indicator: TA98, Metabolic Activation: HUMAN, FETAL LIVER, S-9): active; positive
- mutagenic call (Test System: AMES SALMONELLA TYPHIMURIUM, Strain/Indicator: TA98, Metabolic Activation: MOUSE, LIVER, HEPATOCYTES): active; positive
- mutagenic call (Test System: AMES SALMONELLA TYPHIMURIUM, Strain/Indicator: TA98, Metabolic Activation: MOUSE, LIVER, S-9, Method: STANDARD PLATE): active; positive
- mutagenic call (Test System: AMES SALMONELLA TYPHIMURIUM, Strain/Indicator: TA98, Metabolic Activation: NONE, Method: STANDARD PLATE): active; positive
- mutagenic call (Test System: AMES SALMONELLA TYPHIMURIUM, Strain/Indicator: TA98, Metabolic Activation: RABBIT, LIVER, MICROSOMAL FRACTION, Method: STANDARD PLATE): active; positive
- mutagenic call (Test System: AMES SALMONELLA TYPHIMURIUM, Strain/Indicator: TA98, Metabolic Activation: RABBIT, LUNG, MICROSOMAL FRACTION, Method: STANDARD PLATE): active; positive
- mutagenic call (Test System: AMES SALMONELLA TYPHIMURIUM, Strain/Indicator: TA98, Metabolic Activation: RAT, LIVER, HEPATOCYTES): active; positive
- mutagenic call (Test System: AMES SALMONELLA TYPHIMURIUM, Strain/Indicator: TA98, Metabolic Activation: RAT, LIVER, S-9, AROCLOR 1254, Method: STANDARD PLATE): active; positive
- mutagenic call (Test System: AMES SALMONELLA TYPHIMURIUM, Strain/Indicator: TA98, Metabolic Activation: RAT, LIVER, S-9, Method: STANDARD PLATE): active; positive
- mutagenic call (Test System: AMES SALMONELLA TYPHIMURIUM, Strain/Indicator: TA98, Metabolic Activation: V-79 CELL HOMOGENATE, Method: PREINCUBATION): active; positive
- mutagenic call (Test System: AMES SALMONELLA TYPHIMURIUM, Strain/Indicator: TA1538, Metabolic Activation: NONE, Method: STANDARD PLATE): active; positive
- mutagenic call (Test System: AMES SALMONELLA TYPHIMURIUM, Strain/Indicator: TA1538, Metabolic Activation: RAT, LIVER, S-9, AROCLOR 1254, Method: STANDARD PLATE): active; positive
- mutagenic call (Test System: AMES SALMONELLA TYPHIMURIUM, Strain/Indicator: TA1538, Metabolic Activation: RAT, LIVER, S-9, KC500 OR PHENOBARBITAL, Method: LIQUID SUSPENSION): active; positive
- mutagenic call (Test System: AMES SALMONELLA TYPHIMURIUM, Strain/Indicator: YG1012, Metabolic Activation: NONE, Method: PREINCUBATION): active; positive
- mutagenic call (Test System: AMES SALMONELLA TYPHIMURIUM, Strain/Indicator: YG1019, Metabolic Activation: NONE, Method: PREINCUBATION): active; positive
- mutagenic call (Test System: AMES SALMONELLA TYPHIMURIUM, Strain/Indicator: YG1020, Metabolic Activation: NONE, Method: PREINCUBATION): active; positive
- mutagenic call (Test System: AMES SALMONELLA TYPHIMURIUM, Strain/Indicator: YG1024, Metabolic Activation: NONE, Method: PREINCUBATION): active; positive
- mutagenic call (Test System: CHINESE HAMSTER V-79, Strain/Indicator: V-79/6-THIOGUANINE, Metabolic Activation: NONE): active; positive
- mutagenic call (Test System: CHINESE HAMSTER V-79, Strain/Indicator: V-79/8-AZAGUANINE, Metabolic Activation: NONE, Method: STANDARD PLATE): active; positive
- mutagenic call (Test System: E. COLI, Strain/Indicator: WP2 UVRA, Metabolic Activation: NONE, Method: STANDARD PLATE): inactive; negative
- mutagenic call (Test System: UDS GUINEA PIG HEPATOCYTES, Strain/Indicator: THY INCORP, Metabolic Activation: NONE, Method: LIQUID SCINTILLATION COUNTING): active; positive
- mutagenic call (Test System: UDS HAMSTER HEPATOCYTES, Strain/Indicator: THY INCORP, Metabolic Activation: NONE, Method: LIQUID SCINTILLATION COUNTING): active; positive
- mutagenic call (Test System: UDS HUMAN CELLS, Strain/Indicator: THY INCORP (NON-S-PHASE), Metabolic Activation: RAT, LIVER, S-9, PHENOBARBITAL, Method: LIQUID SCINTILLATION COUNTING): active; positive
- mutagenic call (Test System: UDS HUMAN FIBROBLASTS, Strain/Indicator: THY INCORP (NON-S-PHASE), Metabolic Activation: NONE, Method: AUTORADIOGRAPHY): active; positive
- mutagenic call (Test System: UDS HUMAN FIBROBLASTS, Strain/Indicator: THY INCORP (NON-S-PHASE), Metabolic Activation: NONE, Method: LIQUID SCINTILLATION COUNTING): active; positive
- mutagenic call (Test System: UDS HUMAN LYMPHOCYTES, Strain/Indicator: THY INCORP (NON-S-PHASE), Metabolic Activation: NONE, Method: LIQUID SCINTILLATION COUNTING): active; positive
- mutagenic call (Test System: UDS MOUSE HEPATOCYTES, Strain/Indicator: THY INCORP, Metabolic Activation: NONE, Method: LIQUID SCINTILLATION COUNTING): active; positive
- mutagenic call (Test System: UDS RAT HEPATOCYTES, Strain/Indicator: THY INCORP, Metabolic Activation: NONE, Method: LIQUID SCINTILLATION COUNTING): active; positive
- mutagenic call (Test System: UDS RODENT HEPATOCYTES, Strain/Indicator: THY INCORP (NON-S-PHASE), Method: AUTORADIOGRAPHY): active; positive
- mutagenic call (Test System: UDS RODENT HEPATOCYTES, Strain/Indicator: THY INCORP (NON-S-PHASE), Method: LIQUID SCINTILLATION COUNTING): active; positive

Compound: CCOP(=S)(OCC)Oc1nc(Cl)n(C(C)C)n1
- mutagenic call [1]: active; positive
- mutagenic call (Test System: AMES SALMONELLA TYPHIMURIUM, Strain/Indicator: TA98, Metabolic Activation: RAT, LIVER, S-9, AROCLOR 1254, Method: PREINCUBATION): active; positive

Compound: CN1C(=O)CN=C(c2ccccc2F)c2cc([N+](=O)[O-])ccc21
- mutagenic call (Test System: AMES SALMONELLA TYPHIMURIUM, Strain/Indicator: TA100, Metabolic Activation: NONE, Method: STANDARD PLATE): active; positive
- mutagenic call (Test System: AMES SALMONELLA TYPHIMURIUM, Strain/Indicator: TA100, Metabolic Activation: RAT, LIVER, S-9, AROCLOR 1254, Method: STANDARD PLATE): active; positive

Compound: CCCCN(CC(O)c1ccc([O-])c([N+]#N)c1)N=O (stereo not given)
- mutagenic call [1]: active; positive
- mutagenic call (Test System: AMES SALMONELLA TYPHIMURIUM, Strain/Indicator: TA98, Method: PREINCUBATION): active; positive
- mutagenic call (Test System: AMES SALMONELLA TYPHIMURIUM, Strain/Indicator: TA100, Metabolic Activation: NONE, Method: PREINCUBATION): active; positive
- mutagenic call (Test System: AMES SALMONELLA TYPHIMURIUM, Strain/Indicator: TA100, Method: PREINCUBATION): active; positive

Compound: Cc1cccc(OC(=O)N(C)N=O)c1
- mutagenic call (Test System: E. COLI WP2, Strain/Indicator: WP2, Metabolic Activation: NONE, Method: STANDARD PLATE): active; positive

Compound: CN(Cc1ccc(F)cc1)N=O
- mutagenic call (Test System: AMES SALMONELLA TYPHIMURIUM, Strain/Indicator: TA1535, Metabolic Activation: HAMSTER, LIVER, S-9, AROCLOR 1254, Method: STANDARD PLATE): active; positive
- mutagenic call (Test System: AMES SALMONELLA TYPHIMURIUM, Strain/Indicator: TA1535, Metabolic Activation: NONE, Method: STANDARD PLATE): inactive; negative
